# Test results reported in patent publication US20160108381A1, “DNA POLYMERASES AND MUTANTS THEREOF” (LIFE TECHNOLOGIES CORPORATION, priority 2001, published 2016).
# Legend:
# Assay in all cases: Steady-state kinetics, DNA- and RNA-dependent polymerase activity
# Format in all cases: biochemical
# [1] = target: T1, Caldibacillus cellulovorans CompA.2 (CA2) DNA polymerase, SEQ ID NO:16 ([Caldibacillus] cellulovorans, UniProt Q6X9S0)
# T1 sequence (Q6X9S0 with tags, fused parts or gaps): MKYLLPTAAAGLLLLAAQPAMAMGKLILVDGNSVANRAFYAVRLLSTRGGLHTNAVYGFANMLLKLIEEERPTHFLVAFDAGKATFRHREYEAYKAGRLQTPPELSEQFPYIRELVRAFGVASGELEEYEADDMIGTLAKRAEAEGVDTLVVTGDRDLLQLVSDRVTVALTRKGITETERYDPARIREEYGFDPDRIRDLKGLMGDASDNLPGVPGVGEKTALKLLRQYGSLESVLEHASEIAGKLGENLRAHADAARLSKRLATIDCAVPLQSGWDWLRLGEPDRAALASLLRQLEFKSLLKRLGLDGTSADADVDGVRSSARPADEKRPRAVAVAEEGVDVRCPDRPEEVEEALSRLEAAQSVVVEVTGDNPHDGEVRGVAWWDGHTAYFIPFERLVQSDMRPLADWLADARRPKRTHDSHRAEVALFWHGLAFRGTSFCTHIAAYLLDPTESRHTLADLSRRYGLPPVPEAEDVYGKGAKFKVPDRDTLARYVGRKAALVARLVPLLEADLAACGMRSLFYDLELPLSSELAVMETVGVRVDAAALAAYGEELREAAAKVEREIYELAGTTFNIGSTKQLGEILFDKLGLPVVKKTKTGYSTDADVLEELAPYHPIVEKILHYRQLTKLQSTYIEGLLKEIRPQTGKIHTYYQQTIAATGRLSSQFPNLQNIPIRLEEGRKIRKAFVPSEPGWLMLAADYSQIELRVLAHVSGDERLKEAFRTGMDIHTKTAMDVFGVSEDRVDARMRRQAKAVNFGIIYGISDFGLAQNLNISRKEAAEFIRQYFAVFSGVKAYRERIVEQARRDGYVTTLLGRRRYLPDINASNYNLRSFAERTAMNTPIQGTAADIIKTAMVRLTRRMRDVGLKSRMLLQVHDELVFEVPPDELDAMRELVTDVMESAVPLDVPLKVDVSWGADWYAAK
# Protocol: (§1) Purification of CA2, B.EA1, Rt41A, Dth, Tok13B, Tok7B, and Rt69B DNA polymerase. E. coli cells (BL21SI, Invitrogen Corporation, Carlsbad, Calif.) bearing the plasmid pET26B with the gene for CA2, B.EA1, Rt41A, or Dth DNA polymerase were grown in 2.8-1 Fembach flasks in LB broth containing no salt and 50 μg/ml kanamycin at 37° C. After the culture reached an A590 of 1.2, expression of DNA polymerase was induced with 0.3 M NaCl for 3 hr. Cells were harvested by centrifugation and stored at −70° C. E. coli cells (BL21AI) bearing the plasmid pET14B with the gene for Tok13B, Tok7B, or RT69B DNA polymerase were grown in 2.8-1 Fembach flasks in LB broth containing 50 μg/ml ampicillin at 37° C. After the culture reached an A590 of 1.0, expression of DNA polymerase was induced by the addition of 0.2% arabinose for 3 hr. Cells were harvested by centrifugation and stored at −70° C.
# (§2) Steady-state kinetic measurements.
# (§3) The catalytic rate constant kcat and the Michaelis constant KM were determined for both the DNA-dependent and RNA-dependent polymerase activities for the polypeptides of the invention and these parameters were compared to those of Tne DNA polymerase enzyme and […]™ II reverse transcriptase. […]
# [2] = target: T2, Bacillus caldolyticus EA1.3 (B.EA1) DNA polymerase, SEQ ID NO:20 ([Bacillus] caldolyticus, UniProt Q6X9S1); settings: Table 40; dTTP; 55 °C
# T2 sequence (Q6X9S1 with tags, fused parts or gaps): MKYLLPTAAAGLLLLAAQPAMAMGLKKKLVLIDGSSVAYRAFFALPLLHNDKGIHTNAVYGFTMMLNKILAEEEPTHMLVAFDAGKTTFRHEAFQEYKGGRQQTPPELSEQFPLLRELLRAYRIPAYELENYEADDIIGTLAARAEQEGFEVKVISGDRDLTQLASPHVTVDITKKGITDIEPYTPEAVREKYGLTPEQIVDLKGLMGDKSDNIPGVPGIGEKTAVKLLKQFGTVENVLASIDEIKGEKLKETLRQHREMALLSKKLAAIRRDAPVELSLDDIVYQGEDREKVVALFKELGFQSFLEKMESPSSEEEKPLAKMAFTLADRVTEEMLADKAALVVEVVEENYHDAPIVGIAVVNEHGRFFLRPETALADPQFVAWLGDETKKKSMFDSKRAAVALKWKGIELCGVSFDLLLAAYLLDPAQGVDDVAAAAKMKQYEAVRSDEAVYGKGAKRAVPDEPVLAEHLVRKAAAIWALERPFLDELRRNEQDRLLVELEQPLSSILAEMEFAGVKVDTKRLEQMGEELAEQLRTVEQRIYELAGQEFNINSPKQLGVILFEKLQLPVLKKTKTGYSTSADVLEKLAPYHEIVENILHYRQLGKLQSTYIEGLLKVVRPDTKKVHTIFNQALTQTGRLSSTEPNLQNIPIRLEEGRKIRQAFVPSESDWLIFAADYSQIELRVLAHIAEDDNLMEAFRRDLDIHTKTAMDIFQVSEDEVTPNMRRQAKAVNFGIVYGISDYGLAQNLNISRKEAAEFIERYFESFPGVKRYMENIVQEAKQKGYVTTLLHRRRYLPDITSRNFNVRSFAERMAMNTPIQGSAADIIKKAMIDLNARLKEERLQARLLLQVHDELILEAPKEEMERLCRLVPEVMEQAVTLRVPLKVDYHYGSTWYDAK
# Protocol: as §1, §2
# [3] = target: T3, Thermotoga neapolitana (Tne) DNA polymerase, mutated to eliminate 3′ to 5′ and 5′ to 3′ exonuclease activity (Thermotoga neapolitana, UniProt B9K7T2)
# T3 construct: mutated to eliminate 3'-5' and 5'-3' exonuclease activity as in US 6,306,588 (recalled, unsure: D137A and D323A)
# T3 sequence (B9K7T2 entry or part of it, stated change not applied): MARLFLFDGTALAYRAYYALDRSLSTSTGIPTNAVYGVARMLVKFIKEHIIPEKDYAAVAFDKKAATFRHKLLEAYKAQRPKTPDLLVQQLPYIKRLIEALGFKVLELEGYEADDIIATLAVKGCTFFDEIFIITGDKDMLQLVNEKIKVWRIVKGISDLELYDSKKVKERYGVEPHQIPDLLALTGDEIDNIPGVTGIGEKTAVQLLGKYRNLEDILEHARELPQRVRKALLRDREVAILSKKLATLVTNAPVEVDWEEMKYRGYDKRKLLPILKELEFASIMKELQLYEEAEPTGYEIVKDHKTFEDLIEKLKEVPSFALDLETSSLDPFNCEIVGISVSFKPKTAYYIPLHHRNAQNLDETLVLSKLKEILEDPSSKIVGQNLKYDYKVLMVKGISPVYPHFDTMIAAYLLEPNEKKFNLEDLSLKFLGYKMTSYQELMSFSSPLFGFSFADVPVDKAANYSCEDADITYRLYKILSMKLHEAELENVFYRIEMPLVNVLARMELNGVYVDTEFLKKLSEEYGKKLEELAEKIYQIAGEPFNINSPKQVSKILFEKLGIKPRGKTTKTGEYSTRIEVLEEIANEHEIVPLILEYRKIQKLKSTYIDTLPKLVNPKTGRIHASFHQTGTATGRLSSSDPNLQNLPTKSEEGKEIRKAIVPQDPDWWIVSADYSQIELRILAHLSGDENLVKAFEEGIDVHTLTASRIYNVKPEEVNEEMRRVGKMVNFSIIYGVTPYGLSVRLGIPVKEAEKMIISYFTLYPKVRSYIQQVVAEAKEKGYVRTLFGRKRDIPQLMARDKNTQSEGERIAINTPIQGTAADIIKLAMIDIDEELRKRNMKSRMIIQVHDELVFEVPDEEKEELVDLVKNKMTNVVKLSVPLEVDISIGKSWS
# Protocol: (§4) Thermotoga neapolitana (Tne) DNA polymerase mutated to eliminate 3′ to 5′ and 5′ to 3′ exonuclease activity was cloned, engineered and purified as described in U.S. Pat. No. 6,306,588. SuperScript II reverse transcriptase (SS II RT) was from Invitrogen Corporation, Carlsbad, Calif.
# as §2, §3
# [4] = target: SuperScript II reverse transcriptase (SSII, SS II RT), a modified M-MLV reverse transcriptase (Moloney murine leukemia virus isolate Shinnick, UniProt P03355)
# Protocol: as §4, §2, §3
# [5] = Table 34, RNA template, 2 mM MgCl2, 45 °C per footnote
# [6] = read-out: Km RNA (dTTP), Table 34, RNA template, 2 mM MgCl2, 45 °C per footnote
compound,measurement,setting,value
Cc1cn([C@H]2C[C@H](O)[C@@H](COP(=O)(O)OP(=O)(O)OP(=O)(O)O)O2)c(=O)[nH]c1=O [dTTP],Kcat RNA (dTTP),[1]; [5],5 s⁻¹
same,kCAT Ratio (RNA/DNA),"[1]; Table 40, dTTP, 55 °C",0.59
same,Km,[1]; [6],17 µM
same,kCAT Ratio (RNA/DNA),[2],0.59
same,Kcat RNA (dTTP),[3]; [5],0.094 s⁻¹
same,kCAT Ratio (RNA/DNA),"[3]; Table 40, 72 °C, RNA-DNA with dTTP over DNA-DNA with dGTP",0.002
same,kCAT RNA-DNA,"[3]; Table 40, (rA)250•(dT)40, dTTP, 72 °C, mean ± SD",0.2 ± 0.04 s⁻¹
same,Km,[3]; [6],37 µM
same,Kcat RNA (dTTP),[4]; [5],14.5 s⁻¹
same,kCAT Ratio (RNA/DNA),"[4]; Table 40, 37 °C, RNA-DNA with dTTP over DNA-DNA with dGTP",2.8
same,kCAT RNA-DNA,"[4]; Table 40, (rA)250•(dT) template-primer, dTTP, 37 °C, mean ± SD",45 ± 18 s⁻¹
same,Km,[4]; [6],17 µM
